For series [1], the system named is human saphenous vein (HSV) rings. The series is described as follows: Inhibition of phenylephrine-induced HSV contraction. Conditions: HSV rings ex vivo; 2 h treatment; 1 μM phenylephrine; n ≥ 3 donors.
Series [2] relates to human coronary artery vascular smooth muscle cells (HCAVSMCs). The series can be described thus: Cytotoxicity assay. The class given is cell-based. The following applies: 10–500 μM peptide, 2 h treatment, then 24 h in fresh medium.

The source of these data is publication PMC4482421 (ACS Nano, 2015).

Square brackets hold non-standard residues; d marks the D form. Peptide text beside a SMILES is read from it. pS = N[C@@H](COP(=O)(O)O)C(=O)O

Turning to `CC(C)C[C@H](NC(=O)CNC(=O)[C@@H]1CCCN1C(=O)[C@H](CC(C)C)NC(=O)[C@@H]1CCCN1C(=O)[C@H](C)NC(=O)[C@H](COP(=O)(O)O)NC(=O)[C@H](C)NC(=O)[C@H](CCCNC(=N)N)NC(=O)[C@H](CCCNC(=N)N)NC(=O)[C@H](CC(C)C)NC(=O)[C@H](Cc1c[nH]c2ccccc12)NC(=O)[C@H](C)NC(=O)[C@H](CCCNC(=N)N)NC(=O)[C@H](C)NC(=O)[C@H](CCC(N)=O)NC(=O)[C@H](CCCNC(=N)N)NC(=O)[C@H](C)NC(=O)[C@H](C)NC(=O)[C@H](C)NC(=O)[C@H](CCCNC(=N)N)NC(=O)[C@H](C)NC(=O)[C@@H](N)Cc1ccc(O)cc1)C(=O)N[C@@H](CCCCN)C(=O)O` [p-HSP20] (H-YARAAARQARAWLRRA[pS]APLPGLK-OH; N-terminus and C-terminus assumed), the “inhibition of PE-induced HSV contraction” value in series [1] is “significantly inhibited the second PE-induced HSV contraction”. The “cytotoxicity / biocompatibility” value in series [2] is recorded as “biocompatible with the exception of mild cytotoxicity detected at 500 μM”.
